US20260158152A1, “SPLICING MODULATOR ANTIBODY-DRUG CONJUGATES AND METHODS OF USE” (EISAI R&D MANAGEMENT CO., LTD., priority 2018, published 2026)
Where two headings read alike, the source gives them in different places.

Legend:
[1] = system: TAOK1 (neojunction transcript); assay: In vivo PD RT-qPCR in NCI-N87 tumors, TAOK1; parameters: species or system CB17-SCID mice; settings: 10 mg/kg IV single dose, NCI-N87 xenograft, versus vehicle
Description: (§1) Single cell suspension of 5 million cells per 0.1 mL (50% ATCC-modification-RPMI-1640-medium, Cat. No. A10491-01 (Thermo-Fisher Scientific); and 50% Corning Matrigel, Cat No. 356254 (VWR Scientific)) was injected subcutaneously on the right lateral flank with a syringe with a 25 Ga needle. Mice were randomized on day 0 at a mean tumor volume of 180-183 mm^3, n=8 per group for efficacy and n=4 per group for pharmacodynamics (PD). On day 1, test articles were administered (10 mg/kg) at a volume of 5 mL/kg intravenously every 7 days for 2 cycles for efficacy; a single course of treatment was used for PD assessment. Animals in the PD cohorts were euthanized at 24, 48, 72, and/or 96 hours post-dosing of a single dose, depending on the test article.
(§2) RNA was purified from tumor samples using MagMAX-96 for Microarrays kit and MagMAX Express-96 Deep Well Magnetic Particle Processor (ThermoFisher Scientific). Tumor samples (size 50-100 mg) were collected in RNAlater buffer and kept at −80° C. until RNA isolation. Tissue homogenization was performed by adding 2-3 ceramic beads and 1 mL of Tri-reagent into a tube containing tumors, followed by disruption on an Omni Bead Ruptor 24 instrument (Omni International). RNA isolation was done according to the manufacturer's instructions.
(§3) RNA lysates were isolated and reverse transcribed using TaqMan Fast Virus 1-Step Master Mixt (ThermoFisher Scientific) according to the manufacturer's instructions.
(§4) Quantitative PCR from cDNA was performed using TaqMan Gene Expression Master Mix (ThermoFisher Scientific) with transcript probes targeting FBXW5 or TAOK1 junctions duplexed with RPLP0 RNA VIC-PL (ThermoFisher Scientific) and quantified using the ΔΔCt method.
(§5) RT-qPCR of FBXW5 (mature mRNA transcript) and TAOK1 (neojunction transcript) were monitored. Test article or vehicle was given intravenously (IV) at 10 mg/kg. […] Tumors were isolated for RNA extraction and RT-qPCR. *p<0.05 versus vehicle using one-way ANOVA (FIG. 24A and FIG. 24B) or two-way ANOVA (FIG. 24C and FIG. 24D).

[2] = system: FBXW5 (mature mRNA transcript); assay: In vivo PD RT-qPCR in NCI-N87 tumors, FBXW5; parameters: species or system CB17-SCID mice; settings: 10 mg/kg IV single dose, NCI-N87 xenograft, versus vehicle
Description: as §1, §2, §3, §4, §5

N87 cells = assay: Cell viability CellTiter-Glo, N87; type: cell-based, human; settings: unconjugated payload of the ADC
Description: (§6) HCC1954 (American Type Culture Collection (ATCC)) breast ductal carcinoma cells were plated at 2000 cells/well in flat bottom 96-well tissue culture plates (Corning) in a total volume of 90 μL tissue culture medium supplemented with 10% fetal bovine serum (ThermoFisher Scientific). Cells were treated with a 3-fold serial dilution of compound from 200 nM to 0.03 nM. Each concentration was tested in triplicate. At the time of treatment, a plate of untreated cells was evaluated using CellTiter-Glo®2.0 Luminescent Cell Viability Assay according to the manufacturer's recommendations (Promega; #G9241). CellTiter-Glo® 2.0 reagent was added to the medium, incubated, and assayed on an EnVision Multilabel Reader (PerkinElmer). Values represent time zero (TO). […] Percentage growth inhibition was calculated as: [(T144−T0)/(C−T0)]×100 for concentrations for which T144>/=T0 or [(T144−T0)/T0]×100 for concentrations for which T144<T0. The dose response curve plots were generated using Prism 7 (Graphpad) and fit using nonlinear regression analysis and the log (inhibitor) versus response—variable slope (four parameters).
HCC1954 (ATCC), 2000 cells/well), N87 (ATCC, 4000 cells/well), SKBR3 (ATCC, 3000 cells/well), and MCF7 (ATCC, 1500 cells/well) cell lines were used. Cell viability analysis was performed as described in section 2.3.

PC3 cells = assay: Cell viability, EPHA2-expressing PC3; type: cell-based; settings: free payload of the ADC
Description: as §6
Anti-CD138 ADCs were tested in the CD138-expressing MOLP8 multiple myeloma cell line. Similarly, anti-EPHA2 ADCs were tested in the EPHA2-expressing PC3 prostate cancer cell line.

THP1.1 = assay: Payload cell potency and lethality CellTiter-Glo, THP1; type: cell-based; settings: for GI50: Homo sapiens
Description: Each concentration was tested in triplicate. […] Values represent time zero (TO).

NCIH1650.1 = assay: Payload cellular potency, CTGlo-ATS, 72 h, NCIH1650.1; type: cell-based; settings: corresponding free payload, cell line #1, 72 h
Caco-2 cells = assay: Caco-2 permeability of ADC payload; type: in vitro ADME; settings: for Perm. Mean Caco-2 B-A Perm: corresponding free payload
Description: (§7) Integrity of cell monolayer was confirmed by TEER (transepithelial electrical resistance) and Lucifer yellow. Payloads were spiked in duplicate at 10 µM, separately, on both sides of the cell monolayer. Permeability rates from the apical to basolateral (A−B) direction and the basolateral to apical (B−A) direction were determined by sampling aliquots from both chambers immediately after treatment (t=0) and following incubation for 2 hours. Samples were protein precipitated with organic solvent containing internal standard and analyzed by LC-MS/MS (SCIEX; API 5500). The area ratio responses of payload/internal standard over time in both directions were used to generate permeability (cm/sec) values.

[3] = Caco-2 permeability of ADC payload; type: in vitro ADME; settings: human, payload; for efflux ratio at 2 h, 10 µM: Caco-2, B−A/A−B
Description: as §7

[4] = THP-1, read-out: Payload cell potency: CT..-ATS GMean GI50 (nM) THP1.1

CC[C@H](O)[C@@H](C)C1OC1C[C@@](C)(O)/C=C/C=C(\C)[C@H]1OC(=O)C[C@H](O)CC[C@@](C)(OC)[C@@H](OC(=O)N2CCN(CCN3C(=O)C=CC3=O)CC2)/C=C/[C@@H]1C (stereo in doubt) [ADL14-D1, (2S,3S,6S,7R,10R,E)-10-hydroxy-2-((R,2E,4E)-6-hydroxy-7-((2S,3S)-3-((2R,3S)-3-hydroxypentan-2-yl)oxiran-2-yl)-6-methylhepta-2,4-dien-2-yl)-7-methoxy-3,7-dimethyl-12-oxooxacyclododec-4-en-6-yl 4-(2-(2,5-dioxo-2,5-dihydro-1H-pyrrol-1-yl)ethyl)piperazine-1-carboxylate]
change in TAOK1 neojunction transcript in tumors [1]: did not exhibit statistically significant changes
change in FBXW5 mature mRNA transcript in tumors [2]: did not exhibit statistically significant changes

CC[C@H](O)[C@@H](C)[C@H]1O[C@@H]1C[C@@](C)(O)/C=C/C=C(\C)[C@H]1OC(=O)C[C@H](O)CC[C@@](C)(OC)[C@@H](OC(=O)N2CCNCC2)/C=C/[C@@H]1C (stereo in doubt) [D1]
Payload Rmin (%) (N87 cells): −40.041%
Payload Rmin (PC3 cells): −71.987%
CTGlo-ATS Mean MinResponse % THP1.1 (THP1.1; payload of the ADC): −100.815%
CTGlo-ATS GMean LD50 72 h NCIH1650.1 (NCIH1650.1): >10 µM
Perm. Mean Caco-2 B-A Perm (Caco-2 cells): 2.05 10e−6 cm/s

CC[C@H](O)[C@@H](C)C1OC1C[C@@](C)(O)/C=C/C=C(\C)[C@H]1OC(=O)C[C@H](O)CC[C@@](C)(OC(C)=O)[C@@H](OC(=O)N2CCNCC2)/C=C/[C@@H]1C (stereo in doubt) [D4, (2S,3S,6S,7R,10R,E)-7-acetoxy-10-hydroxy-2-((R,2E,4E)-6-hydroxy-7-((2S,3S)-3-((2R,3S)-3-hydroxypentan-2-yl)oxiran-2-yl)-6-methylhepta-2,4-dien-2-yl)-3,7-dimethyl-12-oxooxacyclododec-4-en-6-yl piperazine-1-carboxylate]
Payload Rmin (%) (N87 cells): −81.775%
Payload Rmin (PC3 cells): −55.97%
GI50 (THP1.1; [4]): 10.9 nM
Perm. Mean Caco-2 B-A Perm (Caco-2 cells): 1.79 10e−6 cm/s

CC[C@H](O)[C@@H](C)[C@H]1O[C@@H]1C[C@@](C)(O)/C=C/C=C(\C)[C@H]1OC(=O)C[C@H](O)CC[C@@](C)(OC(C)=O)[C@@H](OC(=O)N2CCN(C(=O)OCc3ccc(NC(=O)[C@H](CCCNC(N)=O)NC(=O)[C@@H](NC(=O)CCCCCN4C(=O)C=CC4=O)C(C)C)cc3)CC2)/C=C/[C@@H]1C [ADL1-D4]
change in TAOK1 neojunction transcript in tumors [1]: significant increases in TAOK1
change in FBXW5 mature mRNA transcript in tumors [2]: significant depletion of FBXW5

CC(=O)N1CCC(n2nnc3c(F)cc(/C=C(\C)[C@H]4OC(=O)C[C@H](O)CC[C@H](C)[C@@H](OC(=O)N5CC[N+](C)(Cc6ccc(NC(=O)[C@H](C)NC(=O)[C@@H](NC(=O)CCCCCN7C(=O)C=CC7=O)C(C)C)cc6)CC5)/C=C/[C@@H]4C)cc32)CC1 [ADL5-D15, 4-((((2S,3S,6R,7S,10R,E)-2-((E)-1-(1-(1-acetylpiperidin-4-yl)-4-fluoro-1H-benzo[d][1,2,3]triazol-6-yl)prop-1-en-2-yl)-10-hydroxy-3,7-dimethyl-12-oxooxacyclododec-4-en-6-yl)oxy)carbonyl)-1-(4-((S)-2-((S)-2-(6-(2,5-dioxo-2,5-dihydro-1H-pyrrol-1-yl)hexanamido)-3-methylbutanamido)propanamido)benzyl)-1-methylpiperazin-1-ium]
change in TAOK1 neojunction transcript in tumors [1]: showed an increase in TAOK1, but did not reach statistical significance
change in FBXW5 mature mRNA transcript in tumors [2]: significant depletion of FBXW5

CC[C@H](O)[C@@H](C)[C@H]1O[C@@H]1C[C@@](C)(O)/C=C/C=C(\C)[C@H]1OC(=O)C[C@H](O)CC[C@@](C)(OC)[C@@H](OC(=O)N2CCN(C)CC2)/C=C/[C@@H]1C [D2, (2S,3S,6S,7R,10R,E)-10-hydroxy-2-((R,2E,4E)-6-hydroxy-7-((2R,3R)-3-((2R,3S)-3-hydroxypentan-2-yl)oxiran-2-yl)-6-methylhepta-2,4-dien-2-yl)-7-methoxy-3,7-dimethyl-12-oxooxacyclododec-4-en-6-yl 4-methylpiperazine-1-carboxylate]
Payload Rmin (%) (N87 cells): −72.706%
Payload Rmin (PC3 cells): −68.803%
GI50 (THP1.1; [4]): 2.02 nM
CTGlo-ATS Mean MinResponse % THP1.1 (THP1.1; payload of the ADC): −100.218%
payload cell potency as compared to D1 (THP1.1; see Table 14): three-fold increase
payload permeability as compared to D1 (Caco-2 cells; see Table 14): three-fold increase

CC[C@H](O)[C@@H](C)[C@H]1O[C@@H]1C[C@@](C)(O)/C=C/C=C(\C)[C@H]1OC(=O)C[C@H](O)CC[C@@](C)(OC(=O)N2CCNCC2)[C@@H](OC(C)=O)/C=C/[C@@H]1C [D8, (2S,3S,6S,7R,10R,E)-6-acetoxy-10-hydroxy-2-((R,2E,4E)-6-hydroxy-7-((2R,3R)-3-((2R,3S)-3-hydroxypentan-2-yl)oxiran-2-yl)-6-methylhepta-2,4-dien-2-yl)-3,7-dimethyl-12-oxooxacyclododec-4-en-7-yl piperazine-1-carboxylate]
Payload Rmin (%) (N87 cells): −34.052%
Payload Rmin (PC3 cells): −68.37%
CTGlo-ATS GMean LD50 72 h NCIH1650.1 (NCIH1650.1): >10 µM
Perm. Mean Caco-2 B-A Perm (Caco-2 cells): 2.027 10e−6 cm/s
Papp A→B at 2 h, 10 µM ([3]; Caco-2, apical to basolateral, 2 hours, read-out: Permeability Mean Caco-2 A-B Perm (10e−6 cm/s)): 0.138 ×10⁻⁶ cm/s

CC[C@H](O)[C@@H](C)[C@H]1O[C@@H]1C[C@@](C)(O)/C=C/C=C(\C)[C@H]1OC(=O)C[C@H](O)CC[C@@](C)(O)[C@@H](OC(=O)N2CCN(C3CCCCCC3)CC2)/C=C/[C@@H]1C [D11, E7107]
CTGlo-ATS Mean MinResponse % THP1.1 (THP1.1; payload of the ADC): −100.481%

CC[C@H](O)[C@@H](C)[C@H]1O[C@@H]1C[C@@](C)(O)/C=C/C=C(\C)[C@H]1OC(=O)C[C@H](O)CC[C@@](C)(O)[C@@H](OC(=O)N2CCNCC2)/C=C/[C@@H]1C [D12]
CTGlo-ATS GMean LD50 72 h NCIH1650.1 (NCIH1650.1): >100 µM
Perm. Mean Caco-2 B-A Perm (Caco-2 cells): 0.23 10e−6 cm/s

CC(=O)N1CCC(n2nnc3c(F)cc(/C=C(\C)[C@H]4OC(=O)C[C@H](O)CC[C@H](C)[C@@H](OC(=O)N5CCN(C)CC5)/C=C/[C@@H]4C)cc32)CC1 [D15]
Payload Rmin (PC3 cells): −79.835%
Papp B→A at 2 h, 10 µM ([3]; Caco-2, basolateral to apical, 2 hours, read-out: Permeability Mean Caco-2 B-A Perm (10e−6 cm/s)): 28.9 ×10⁻⁶ cm/s
efflux ratio at 2 h, 10 µM [3]: 7.84

C/C(=C\c1cc(F)cc(N2CCOCC2)c1)[C@H]1OC(=O)C[C@H](O)CC[C@H](C)[C@@H](OC(=O)N2CCN(C)CC2)/C=C/[C@@H]1C [D17]
GI50 (THP1.1; THP-1, payload of the ADC, read-out: Payload cell potency: CT..-ATS GMean GI50 (nM) THP1.1): 2.83 nM

CC[C@H](O)[C@@H](C)[C@H]1O[C@@H]1C[C@H](C)/C=C/C=C(\C)[C@H]1OC(=O)C[C@H](O)CC[C@@](C)(OC)[C@@H](OC(=O)N2CCNCC2)/C=C/[C@@H]1C [D18, (2S,3S,6S,7R,10R,E)-10-hydroxy-2-((S,2E,4E)-7-((2R,3R)-3-((2R,3S)-3-hydroxypentan-2-yl)oxiran-2-yl)-6-methylhepta-2,4-dien-2-yl)-7-methoxy-3,7-dimethyl-12-oxooxacyclododec-4-en-6-yl piperazine-1-carboxylate]
Payload Rmin (%) (N87 cells): −92.127%
efflux ratio at 2 h, 10 µM [3]: 23

CC[C@H](O)[C@@H](C)[C@H]1O[C@@H]1C[C@@](C)(O)/C=C/C=C(\C)[C@H]1OC(=O)C[C@H](O)CC[C@@](C)(OC)[C@@H](OC(=O)N(C)CCNC)/C=C/[C@@H]1C [D20, (2S,3S,6S,7R,10R,E)-10-hydroxy-2-((R,2E,4E)-6-hydroxy-7-((2R,3R)-3-((2R,3S)-3-hydroxypentan-2-yl)oxiran-2-yl)-6-methylhepta-2,4-dien-2-yl)-7-methoxy-3,7-dimethyl-12-oxooxacyclododec-4-en-6-yl methyl(2-(methylamino)ethyl)carbamate]
efflux ratio at 2 h, 10 µM [3]: 2.38

CC[C@H](O)[C@@H](C)[C@H]1O[C@@H]1C[C@@](C)(O)/C=C/C=C(\C)[C@H]1OC(=O)C[C@H](O)CC[C@@](C)(OC)[C@@H](OC(=O)N2CCNC(CCC(=O)O)C2)/C=C/[C@@H]1C (stereo partly drawn) [D22, N-ethyl-N-isopropylpropan-3-(4-((((2S,3S,6S,7R,10R,E)-10-hydroxy-2-((R,2E,4E)-6-hydroxy-7-((2R,3R)-3-((2R,3S)-3-hydroxypentan-2-yl)oxiran-2-yl)-6-methylhepta-2,4-dien-2-yl)-7-methoxy-3,7-dimethyl-12-oxooxacyclododec-4-en-6-yl)oxy)carbonyl)piperazin-2-yl)propanoic acid]
CTGlo-ATS Mean MinResponse % THP1.1 (THP1.1; payload of the ADC): −78.119%
efflux ratio at 2 h, 10 µM [3]: 1.14

CC[C@H](O)[C@@H](C)[C@H]1O[C@@H]1C[C@@](C)(O)/C=C/C=C(\C)[C@H]1OC(=O)C[C@H](O)CC[C@@](C)(OC)[C@@H](OC(=O)N2CCN(CCCC(=O)O)CC2)/C=C/[C@@H]1C [D25]
Payload Rmin (%) (N87 cells): 40.364%

C/C(=C\c1cc(F)cc(N2CCN(CC(=O)O)CC2)c1)[C@H]1OC(=O)C[C@H](O)CC[C@H](C)[C@@H](OC(=O)N2CCNCC2)/C=C/[C@@H]1C [D33, 2-(4-(3-fluoro-5-((E)-2-((2S,3S,6R,7S,10R,E)-10-hydroxy-3,7-dimethyl-12-oxo-6-((piperazine-1-carbonyl)oxy)oxacyclododec-4-en-2-yl)prop-1-en-1-yl)phenyl)piperazin-1-yl) acetic acid]
efflux ratio at 2 h, 10 µM [3]: 4.08

COc1cc2cc(c1Cl)N(C)C(=O)C[C@H](OC(=O)[C@H](C)N(C)C(=O)CCS)[C@]1(C)O[C@H]1[C@H](C)[C@@H]1C[C@@](O)(NC(=O)O1)[C@H](OC)/C=C/C=C(\C)C2 [DM1, reference compound]
Payload cell lethality: CT..-ATS GMean LD50 (nM) THP1.1 (THP1.1; payload of the ADC): 3.287 nM
